In publication PMC8151276, “An Integrated Approach toward NanoBRET Tracers for Analysis of GPCR Ligand Engagement” (Molecules, 2021):

Key:
Assay type in all cases: binding
[1] = target: T1, AGTR1 (Homo sapiens, UniProt P30556); experiment: NanoBRET screen HiBiT-AGTR1 in HEK293; details: AGTR1
T1 construct: purchased Promega (in-house HiBiT-GPCR construct library, NanoBRET)
T1 sequence (P30556 1-359): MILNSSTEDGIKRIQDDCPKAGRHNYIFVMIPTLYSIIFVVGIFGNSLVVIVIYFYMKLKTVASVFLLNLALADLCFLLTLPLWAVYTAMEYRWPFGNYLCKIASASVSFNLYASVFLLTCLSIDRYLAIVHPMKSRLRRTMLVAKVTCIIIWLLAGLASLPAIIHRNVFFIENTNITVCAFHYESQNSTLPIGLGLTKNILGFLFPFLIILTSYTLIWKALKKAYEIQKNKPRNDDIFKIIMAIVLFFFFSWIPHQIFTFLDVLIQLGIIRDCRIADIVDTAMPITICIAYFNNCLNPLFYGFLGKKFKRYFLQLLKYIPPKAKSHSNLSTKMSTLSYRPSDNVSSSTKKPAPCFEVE
Protocol: (§1) Each tracer candidate was screened across the entire library of HiBiT-GPCR constructs using NanoBRET as the detection modality. As depicted in Figure 4A, the specificity of interactions was evaluated through decrease in BRET due to competitive displacement of a bound tracer by excess parental compound. Each tracer was analyzed for binding to each HiBiT-GPCR fusion in the absence and in the presence of competing parental compound. Briefly, HEK293 cells were transfected with HiBiT-GPCR constructs diluted into promoterless DNA to reduce expression and maximize translocation to the cell surface. Each tracer candidate was then screened at concentrations of 1 μM and 0.1 μM across cells expressing these fusions. Cells were treated for 1.5 h with tracer either alone or in the presence of 20 μM competing parental compound (i.e., control). BRET was measured upon addition of purified LgBiT and subsequent complementation with HiBiT genetically fused to a GPCR. The specificity of interactions was assessed through a decrease in BRET signal due to competitive displacement of the bound tracer. To further gauge the robustness of these interactions, the fold response over the control (i.e., BRETtracer/BRETcontrol) was calculated. We chose a 1.5-fold response, which translates to ≥7-fold signal over noise as the minimal threshold required to score an interaction as positive. […]. Below we highlight the screening results obtained for our exemplary fluorescent tracers based on Clozapine, Amitriptyline and AZD1283.
(§2) HiBiT-GPCR DNA constructs were diluted in 10 mM Tris pH 8 to a final concentration of 0.01 μg/μL, arrayed in 96-well plates and stored at −20 °C. For transfection, HEK293 cells were suspended in Opti-MEM (without phenol red) supplemented with 2% fetal bovine serum (Seradigm) and 100 units/mL penicillin–streptomycin (Gibco) at a final concentration of 220,000 cells/mL and dispensed into white 96-well plates at 90 μL/well. Subsequent transfections and screens were carried using an Agilent Bravo Automated Liquid Handling Platform. First, the 96-well HiBiT DNA arrays were diluted 25-fold in Opti-MEM (without serum or phenol red) to a final concentration of 0.0004 μg/μL and 20 μL of the diluted DNAs were transferred into new 96-well plates. Next, promoterless carrier DNA (1 μg/μL) was diluted 25-fold (0.04 μg/μL) and then dispensed into the diluted arrays at 20 μL/well. Following brief mixing, Viafect transfection reagent (Promega) diluted 16-fold into Opti-MEM was dispensed into the plates at 40 μL/well. After mixing by pipetting, plates were incubated for 10 min on the pipetting station deck. The DNA-transfection reagent complexes were then added to plates containing cells. To facilitate the screen, 10 μL of DNA-transfection reagent complexes were added in duplicates to the top 4 and bottom 4 rows, resulting in two identical 48-well arrays per plate. Plates with transfected cells were incubated for 18–20 h at 37 °C/5% CO2. A screen of each tracer across the entire library using two different concentrations requires duplicate plates of transfected cells. Depending on the number of tracers being screened, transfections can be scaled up using the same ratios. The next day, for each tracer, four 20× screening solutions in tracer dilution buffer (Promega) were prepared: two duplicates at final concentration of 20 μM and two duplicates at a final concentration of 2 μM. A competing unmodified compound was added to one of each duplicate at a final concentration of 400 μM. The four resulting solutions were diluted 4-fold in Opti-MEM without serum or phenol red to generate 5× solutions (5 µM and 0.5 µM tracer +/− 100 μM competing compound). To screen the library, a BioTek MultiFlo FX liquid dispenser was used to dispense 22.5 µL of tracer solution to the top 4 rows and 22.5 µL tracer + competing compound solution to the 4 bottom rows. Plates were briefly mixed on an orbital shaker and incubated for 1.5 h at room temperature. […]

[2] = target: T2, AVPR2 (Homo sapiens, UniProt P30518); experiment: NanoBRET screen HiBiT-AVPR2 in HEK293; details: AVPR2
T2 construct: purchased Promega (in-house HiBiT-GPCR construct library, NanoBRET)
Protocol: as §1, §2

[3] = target: T3, CXCR5 (Homo sapiens, UniProt P32302); experiment: NanoBRET screen HiBiT-CXCR5 in HEK293; details: CXCR5
T3 construct: purchased Promega (in-house HiBiT-GPCR construct library, NanoBRET)
T3 sequence (P32302 1-372): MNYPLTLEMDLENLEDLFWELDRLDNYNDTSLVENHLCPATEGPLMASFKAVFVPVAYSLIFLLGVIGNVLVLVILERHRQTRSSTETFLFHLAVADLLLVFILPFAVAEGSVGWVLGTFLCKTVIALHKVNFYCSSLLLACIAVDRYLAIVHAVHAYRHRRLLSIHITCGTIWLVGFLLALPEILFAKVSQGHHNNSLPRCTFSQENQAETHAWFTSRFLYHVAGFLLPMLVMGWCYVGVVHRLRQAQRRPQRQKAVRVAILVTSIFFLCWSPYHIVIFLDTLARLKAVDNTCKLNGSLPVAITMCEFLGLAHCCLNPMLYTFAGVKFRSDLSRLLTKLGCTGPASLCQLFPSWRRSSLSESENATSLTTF
Protocol: as §1, §2

[4] = target: T4, C5AR2 (Homo sapiens, UniProt Q9P296); experiment: NanoBRET screen HiBiT-C5AR2 in HEK293; details: C5AR2
T4 construct: purchased Promega (in-house HiBiT-GPCR construct library, NanoBRET)
Protocol: as §1, §2

[5] = target: T5, GHSR (Homo sapiens, UniProt Q92847); experiment: NanoBRET screen HiBiT-GHSR in HEK293; details: GHSR
T5 construct: purchased Promega (in-house HiBiT-GPCR construct library, NanoBRET)
Protocol: as §1, §2

[6] = target: T6, CNR1 (Homo sapiens, UniProt P21554); experiment: NanoBRET screen HiBiT-CNR1 in HEK293; details: CNR1
T6 construct: purchased Promega (in-house HiBiT-GPCR construct library, NanoBRET)
Protocol: as §1, §2

T6 sequence (P21554 whole entry): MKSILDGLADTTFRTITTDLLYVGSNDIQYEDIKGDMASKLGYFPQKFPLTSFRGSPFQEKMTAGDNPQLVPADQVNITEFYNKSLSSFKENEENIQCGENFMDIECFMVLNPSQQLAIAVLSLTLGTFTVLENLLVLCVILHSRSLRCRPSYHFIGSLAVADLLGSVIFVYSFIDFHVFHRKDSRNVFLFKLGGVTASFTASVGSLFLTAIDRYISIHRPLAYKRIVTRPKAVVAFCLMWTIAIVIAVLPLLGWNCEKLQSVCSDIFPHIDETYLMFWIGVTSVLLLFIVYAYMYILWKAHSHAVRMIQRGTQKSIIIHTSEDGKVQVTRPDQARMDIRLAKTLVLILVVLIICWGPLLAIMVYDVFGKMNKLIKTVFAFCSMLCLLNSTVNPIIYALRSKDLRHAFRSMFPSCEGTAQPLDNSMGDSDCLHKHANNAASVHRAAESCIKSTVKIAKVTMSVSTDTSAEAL
T4 sequence (Q9P296 whole entry): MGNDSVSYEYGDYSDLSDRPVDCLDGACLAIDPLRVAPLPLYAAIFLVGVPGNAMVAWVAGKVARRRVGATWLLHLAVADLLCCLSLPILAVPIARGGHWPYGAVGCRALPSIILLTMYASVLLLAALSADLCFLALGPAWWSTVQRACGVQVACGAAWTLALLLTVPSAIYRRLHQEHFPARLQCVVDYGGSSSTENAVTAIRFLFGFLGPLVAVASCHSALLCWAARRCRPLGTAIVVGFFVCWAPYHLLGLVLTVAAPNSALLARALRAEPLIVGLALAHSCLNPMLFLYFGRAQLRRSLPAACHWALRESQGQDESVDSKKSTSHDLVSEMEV
T2 sequence (P30518 whole entry): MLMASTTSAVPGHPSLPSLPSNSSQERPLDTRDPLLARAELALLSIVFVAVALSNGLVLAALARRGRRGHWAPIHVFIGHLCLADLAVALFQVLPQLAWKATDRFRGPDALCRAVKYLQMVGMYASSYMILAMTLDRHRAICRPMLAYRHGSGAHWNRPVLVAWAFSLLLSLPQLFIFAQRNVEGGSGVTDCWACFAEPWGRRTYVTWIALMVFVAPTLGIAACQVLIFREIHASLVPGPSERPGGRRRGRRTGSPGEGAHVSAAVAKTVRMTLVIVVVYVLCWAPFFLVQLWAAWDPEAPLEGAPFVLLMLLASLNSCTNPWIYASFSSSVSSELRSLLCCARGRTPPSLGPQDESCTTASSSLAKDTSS
T5 sequence (Q92847 whole entry): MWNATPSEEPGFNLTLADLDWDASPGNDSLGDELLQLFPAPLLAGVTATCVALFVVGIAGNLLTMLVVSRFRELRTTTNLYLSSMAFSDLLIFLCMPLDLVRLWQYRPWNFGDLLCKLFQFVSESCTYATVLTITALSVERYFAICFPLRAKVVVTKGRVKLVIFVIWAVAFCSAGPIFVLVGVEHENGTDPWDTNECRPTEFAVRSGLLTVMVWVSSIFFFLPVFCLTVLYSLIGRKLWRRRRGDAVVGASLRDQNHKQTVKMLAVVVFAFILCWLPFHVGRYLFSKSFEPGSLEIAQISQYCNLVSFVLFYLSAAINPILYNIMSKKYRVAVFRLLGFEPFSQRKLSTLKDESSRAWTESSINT

Compound	NanoBRET Fold Response ([1]; tracer 0.1μM)	NanoBRET Fold Response ([1]; tracer 1μM)	NanoBRET Fold Response ([2]; tracer 0.1μM)	NanoBRET Fold Response ([2]; tracer 1μM)	NanoBRET Fold Response ([3]; tracer 0.1μM)	NanoBRET Fold Response ([3]; tracer 1μM)	NanoBRET Fold Response ([4]; tracer 0.1μM)	NanoBRET Fold Response ([4]; tracer 1μM)	NanoBRET Fold Response ([5]; tracer 0.1μM)	NanoBRET Fold Response ([5]; tracer 1μM)	NanoBRET Fold Response ([6]; tracer 0.1μM)	NanoBRET Fold Response ([6]; tracer 1μM)	also measured
CN1CCN(C2=Nc3cc(Cl)ccc3N(CC(=O)NCCOCCOCCOCCOCCNC(=O)CCc3ccc4n3[B-](F)(F)[N+]3=C(c5ccc[nH]5)C=CC3=C4)c3ccccc32)CC1 [Clozapine-c-2-NB590]													NanoBRET Fold Response ([1]; 0.1μM tracer): 0.98; NanoBRET Fold Response ([1]; 1μM tracer): 0.93; NanoBRET Fold Response ([2]; 0.1μM tracer): 0.99; NanoBRET Fold Response ([2]; 1μM tracer): 1.00; NanoBRET Fold Response ([3]; 0.1μM tracer): 0.98; NanoBRET Fold Response ([3]; 1μM tracer): 0.98; NanoBRET Fold Response ([4]; 0.1μM tracer): 0.99; NanoBRET Fold Response ([4]; 1μM tracer): 1.00; NanoBRET Fold Response ([5]; 0.1μM tracer): 1.00; NanoBRET Fold Response ([5]; 1μM tracer): 1.04; NanoBRET Fold Response ([6]; 0.1μM tracer): 0.99; NanoBRET Fold Response ([6]; 1μM tracer): 1.05
O=C(CCOCCOCCOCCOCCNC(=O)CCc1ccc2n1[B-](F)(F)[N+]1=C(c3ccc[nH]3)C=CC1=C2)NCCCN1CCN(C2=Nc3ccccc3Oc3ccc(Cl)cc32)CC1 [Loxapine-a-2-NB590]	0.96	1.08	1.04	1.05	0.29	0.90	0.95	1.07	0.97	1.09	0.72	0.29	
COc1ccccc1N1CCN(CCCCN2C(=O)c3ccc(CNC(=O)CCOCCOCCOCCOCCNC(=O)CCc4ccc5n4[B-](F)(F)[N+]4=C(c6ccc[nH]6)C=CC4=C5)cc3C2=O)CC1 [NAN-190-2-NB590]	1.04	1.11	1.00	0.98	1.01	1.00	1.02		1.01	1.02	1.02		
COc1ccccc1N1CCN(CCCCN2C(=O)c3ccc(CNC(=O)CCOCCNC(=O)c4ccc(CNC(=O)CCc5ccc6n5[B-](F)(F)[N+]5=C(c7ccc[nH]7)C=CC5=C6)cc4)cc3C2=O)CC1 [NAN-190-3-NB590]	0.92	1.04	1.08	1.11	1.37	0.68	0.87	1.07	0.86	1.06	1.10	1.01	
O=C(CCc1ccc2n1[B-](F)(F)[N+]1=C(c3ccc[nH]3)C=CC1=C2)NCc1ccc(C(=O)NCCOCCC(=O)N[C@@H]2CC[C@@]3(O)[C@H]4Cc5ccc(O)c6c5[C@@]3(CCN4CC3CC3)[C@H]2O6)cc1 [Naltrexone-3-NB590]	1.07	0.93	1.30	0.97	0.57	0.57	0.95	1.01	1.01	0.90	0.96	0.95	
Cc1cc2c(s1)Nc1ccccc1N=C2N1CCN(CCCNC(=O)CCOCCOCCOCCOCCNC(=O)CCc2ccc3n2[B-](F)(F)[N+]2=C(c4ccc[nH]4)C=CC2=C3)CC1 [Olanzapine-a-2-NB590]	0.94	0.95	0.98	0.92	0.98	0.86	0.95	0.97	0.96	0.98	0.99	1.05	
O=C(CCc1ccc2n1[B-](F)(F)[N+]1=C(c3ccc[nH]3)C=CC1=C2)NCc1ccc(C(=O)NCCOCCOCCNCC(O)COc2cccc3ccccc23)cc1 (stereo not shown) [Propranolol-3-NB590]													NanoBRET Fold Response ([1]; 0.1μM): 1.04; NanoBRET Fold Response ([1]; 1μM): 1.07; NanoBRET Fold Response ([2]; 0.1μM): 1.00; NanoBRET Fold Response ([2]; 1μM): 1.00; NanoBRET Fold Response ([3]; 0.1μM): 1.02; NanoBRET Fold Response ([3]; 1μM): 1.06; NanoBRET Fold Response ([4]; 0.1μM): 1.00; NanoBRET Fold Response ([4]; 1μM): 1.01; NanoBRET Fold Response ([5]; 0.1μM): 0.98; NanoBRET Fold Response ([5]; 1μM): 0.97; NanoBRET Fold Response ([6]; 0.1μM): 0.99; NanoBRET Fold Response ([6]; 1μM): 1.00
O=C(CCc1ccc2n1[B-](F)(F)[N+]1=C(c3ccc[nH]3)C=CC1=C2)NCCOCCOCCNC(=O)OCCOCCN1CCN(C2=Nc3ccccc3Sc3ccccc32)CC1 [Quetiapine-a-2-NB590]	1.00	0.92	1.03	0.93	1.01	0.92	1.04	0.77	0.97	0.77	1.00	1.00	
